# Laboratory results published in patent publication US20240180888A1, “C5AR1 INHIBITORS FOR TREATING […] REACTIONS TO TAXANES” (Dompe' Farmaceutici SPA, priority 2021, published 2024).
# Target: T1, complement component 5a (Homo sapiens, UniProt P01031)
# T1 sequence (P01031 678-751 limits assumed): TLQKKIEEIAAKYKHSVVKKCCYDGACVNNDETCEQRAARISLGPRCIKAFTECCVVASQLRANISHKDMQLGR
# Test: BIAcore SPR binding to C5a immobilised on sensorchip CM5
# Details: 300 microM in Running Buffer
# Description: BIAcore technology was used to analyze the interaction between Paclitaxel and complement component 5a receptor 1 (C5aR1) (Example 1), complement component 5a receptor 2 (C5AR2) (Example 2) or complement component 5a (Example 3).
# The BIAcore systems exploit the phenomenon of Surface Plasmon Resonance (SPR) to monitor interactions between molecules in real time. Briefly, SPR phenomenon occurs in thin conducting films at an interface between media of different refractive index. In BIAcore systems, the media are the glass of the sensorchip and the sample solution, and the conducting film is a thin layer of gold on the sensorchip surface. BIAcore monitors the interaction between two molecules, one attached to the sensor surface, called ligand, and the other one free in solution, and called analyte.
# C5a was immobilized on a sensorchip (#29149604, Cytiva). In details, 20 microg/ml of recombinant protein C5a was diluted in 10 mM acetate buffer at pH 4.5 and injected over the surface of the sensorchip. Activation and deactivation of sensorchip were performed as described in Example 1a).
# Paclitaxel was injected on the C5A surface of the sensorchip prepared in Example 2a) at a concentration of 300 microM in Running Buffer.RU can be detected by BIAcore.
compound,measurement,value
CC(=O)O[C@H]1C(=O)[C@@]2(C)[C@H]([C@H](OC(=O)c3ccccc3)[C@]3(O)C[C@H](OC(=O)[C@H](O)[C@@H](NC(=O)c4ccccc4)c4ccccc4)C(C)=C1C3(C)C)[C@]1(OC(C)=O)CO[C@@H]1C[C@@H]2O [Paclitaxel],binding to immobilised C5a,not able to bind
